Data set [1] can be described thus: Partition coefficient Log (D), 1-octanol / pH 7.4 buffer. The data set is classed as physicochemical. To be noted: water-saturated 1-octanol / pH 7.4 buffer, room temperature. The procedure: The partition coefficient, Log (D), between water-saturated 1-octanol and pH 7.4 buffer was determined for the test compounds. The buffer was prepared as described in section 2. A 12 μl aliquot of a 10 mM stock solution in DMSO was introduced to a vial containing 0.60 mL of octanol and 0.60 mL of buffer at room temperature. Testosterone was also added to a final concentration of 100 μM as an internal control. The solution was vortexed for 60 minutes and centrifuged at 10,000 rpm for 10 minutes. The organic and aqueous layers were removed. Serial dilutions of the organic layer were made with 50% methanol except for the initial dilution, which was made in 100% methanol. Serial dilutions of the aqueous layer were made in the pH 7.4 buffer. The diluted samples were then assayed by LC/MS for the compound as well as for testosterone. The Log of the ratio of peak area responses was calculated to obtain the Log (D). Typical Log D values for testosterone are from 3.0-3.3.

A short description of data set [2]: Aqueous equilibrium solubility in pH 7.4 buffer. To be noted: pH 7.4 aqueous buffer, room temperature, equilibrium.
The target in data set [3] is T1, Bombyx mori EcR (VP16 fusion, CVBE switch construct) (Bombyx mori, UniProt P49881).
T1 sequence (P49881 86-606): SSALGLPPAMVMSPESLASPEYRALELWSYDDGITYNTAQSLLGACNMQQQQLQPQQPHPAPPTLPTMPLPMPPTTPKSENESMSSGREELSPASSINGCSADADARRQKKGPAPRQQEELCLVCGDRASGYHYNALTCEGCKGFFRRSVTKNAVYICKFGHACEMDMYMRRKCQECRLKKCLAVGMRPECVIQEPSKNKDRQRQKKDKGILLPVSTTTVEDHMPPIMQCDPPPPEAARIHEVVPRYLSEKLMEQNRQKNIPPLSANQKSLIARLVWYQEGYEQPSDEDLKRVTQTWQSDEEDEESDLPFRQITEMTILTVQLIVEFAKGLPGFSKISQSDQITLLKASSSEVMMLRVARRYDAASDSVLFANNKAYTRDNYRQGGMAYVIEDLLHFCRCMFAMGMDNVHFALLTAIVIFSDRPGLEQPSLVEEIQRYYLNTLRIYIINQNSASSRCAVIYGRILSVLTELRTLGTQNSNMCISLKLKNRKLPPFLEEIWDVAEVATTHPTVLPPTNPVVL
T1 sequence (P19793 1-462 partner): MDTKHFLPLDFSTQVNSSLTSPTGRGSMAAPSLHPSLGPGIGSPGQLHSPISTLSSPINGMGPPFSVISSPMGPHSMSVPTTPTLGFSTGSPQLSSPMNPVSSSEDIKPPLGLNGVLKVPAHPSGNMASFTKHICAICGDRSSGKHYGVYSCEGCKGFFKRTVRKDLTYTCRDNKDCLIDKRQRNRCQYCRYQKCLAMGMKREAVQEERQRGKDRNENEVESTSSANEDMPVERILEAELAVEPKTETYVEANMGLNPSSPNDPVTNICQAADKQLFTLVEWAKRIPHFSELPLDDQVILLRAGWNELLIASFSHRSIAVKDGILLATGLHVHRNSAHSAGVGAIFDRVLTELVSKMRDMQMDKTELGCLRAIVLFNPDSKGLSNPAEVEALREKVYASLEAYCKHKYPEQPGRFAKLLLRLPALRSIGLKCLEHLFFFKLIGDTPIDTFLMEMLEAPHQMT
Nature of the data set: Z3 Assay (HEK-293 cells with CVBE and 6XEcRE LacZ, β-galactosidase reporter).

The test system of data set [4] is Caco-2 monolayers. Nature of the data set: Bi-directional permeability, CACO-2. The data set is classed as in vitro ADME. The procedure: Caco-2 monolayers were grown to confluence on collagen-coated, microporous, polycarbonate membranes in 12-well Costar Transwell plates. Details of the plates and their certification are shown below. The permeability assay buffer was Hank's Balanced Salt Solution containing 10 mM HEPES and 15 mM glucose at a pH of 7.0±0.2. The dosing solution concentration was 10 μM in assay buffer. At each time point, 1 and 2 hours, a 200-μL aliquot was taken from the receiver chamber and replaced with fresh assay buffer. Cells were dosed on the apical side (A-to-B) or basolateral side (B-to-A) and incubated at 37° C. with 5% CO2 and 90% relative humidity. Each determination was performed in duplicate. The important experimental parameters are outlined below. Permeability through a cell-free (blank) membrane was studied to determine non-specific binding and free diffusion of the compound through the device. Lucifer yellow flux was also measured for each monolayer after being subjected to the test compounds to ensure no damage was inflicted to the cell monolayers during the flux period.
All samples were assayed by LC/MS using electrospray ionization. Typical LC/MS conditions are as follows:
dCr/dt is the cumulative concentration in the receiver compartment versus time in M s^−1.
Vr is the volume of the receiver compartment in cm^3.
Vd is the volume of the donor compartment in cm^3.
A is the area of the cell monolayer (1.13 cm^2 for 12-well Transwell).
C0 is the concentration of the dosing solution in M.
Cr^final is the cumulative receiver concentration in M at the end of the incubation period.
Cd^final is the concentration of the donor in M at the end of the incubation period.

By EC50 is commonly meant the concentration at which the effect is half-maximal. Regarding `CCc1c(OC)cccc1C(=O)NN(C(=O)c1ccccc1S(=O)(=O)O)C(C)(C)C` [RG-115555], the “Log(D) Octanol/pH 7.4” value in data set [1] came to 0.0. In data set [2], the “Solubility pH 7.4” value is recorded as “≧1.0 mg/mL”. The “Fold Induction, Z3 Assay, 3.3 uM” value in data set [3] (3.3 uM ligand, ligand treated / DMSO treated cells, average of two wells) came to 1. For the same compound, the “Z3 assay Rel Max FI” value in data set [3] (maximum fold induction at any concentration relative to that of GS-E ligand, HEK-293 Z3 cells) is recorded as 0.006. Moreover, the concentration for a half-maximal effect (EC50) in data set [3] (read-out: Z3 assay EC50, HEK-293 Z3 cells, β-galactosidase reporter, average of two wells) was over 50 µM. In addition, in data set [4] (Caco-2), the “Papp Blank” value is 35.8 10^−6 cm/s; the “Papp, A-to-B Avg” value was 0.18 10^−6 cm/s; the “Papp, A-to-B Rep. 1” value is 0.18 10^−6 cm/s; the “Papp, A-to-B Rep. 2” value was 0.18 10^−6 cm/s. Moreover, in data set [4] (Caco-2), the “Papp, B-to-A Avg” value was 1.61 10^−6 cm/s; the “Papp, B-to-A Rep. 1” value is on record as 1.55 10^−6 cm/s; the “Papp, B-to-A Rep. 2” value is reported as 1.67 10^−6 cm/s. For the same compound, the “Papp B-A / Papp A-B Ratio” value in data set [4] (Caco-2 efflux ratio) came to 8.9.

For the origin of these results see patent publication US9102648B1, “Bioavailable diacylhydrazine ligands for modulating the expression of exogenous genes via an ecdysone receptor complex” (Intrexon Corporation, priority 2003, dated 2015).
